# Values of other authors as cited in PubChem BioAssay AID1259409 (Chemical Carcinogenesis Research Information System (CCRIS), 2018).
# Tested on: rodent chemically induced tumor inhibition, incidence and multiplicity
# Test: CCRIS tumor inhibitor studies
# Settings: Carcinogen: 7,12-DIMETHYLBENZ[A]ANTHRACENE, 57-97-6, Dose [Inhibitor]: 0, Route [Inhibitor]: GAVAGE, Species: RAT, Strain/Sex: SPRAGUE-DAWLEY/FEMALE, Target Tissue: Type of Lesion: MAMMARY GLAND: TUMOR, Dose [Carcinogen]: 12 MG IN 1 ML OLIVE OIL ONCE, Promoter: NONE USED
smiles,measurement,setting,value
CCCCCCCCCCCCCCCC(=O)OCC1(O)CC23CC[C@@H]4c5ccoc5C=CC4(C)C2CCC1C3 (some centres not stated),"tumour outcome (control, treated, inhibition, significance)",60 MG 1/D FOR 3 D BEGINNING 3 D PRIOR TO CARCINOGEN DOSE (STUDY DURATION: 20 WK),"84%, 56%, 33%, p<0.05"
same,"tumour outcome (control, treated, inhibition, significance)",60 MG ONCE 4 HR PRIOR TO CARCINOGEN DOSE (STUDY DURATION: 20 WK),"84%, 63%, 25%, p<0.05"
